In patent US7863444B2, “4-aminopyrrolopyrimidines as kinase inhibitors” (Abbott Laboratories, priority 1997, dated 2011):

Compound | melting point
CC(C)S(=O)(=O)n1cc(-c2ccc(Oc3ccccc3)cc2)c2c(N)ncnc21 [Example 173, 7-isopropylsulphonyl-5-(4-phenoxyphenyl)-7H-pyrrolo[2,3-d]pyrimidin-4-ylamine] | 162 to 162.5 °C
NCc1c(-c2ccc(Oc3ccccc3)cc2)c2c(N)ncnc2n1C1CCCC1 [Example 165, 6-aminomethyl-7-cyclopentyl-5-(4-phenoxyphenyl)-7H-pyrrolo[2,3-d]pyrimidin-4-ylamine] | 196.5 to 197.5 °C
CC(C)(C)n1cc(-c2ccc(N(C=O)c3ccccc3)cc2)c2cncnc21 [Example 166, 7-tertbutyl-5-(N-formyl-4-phenylaminophenyl)pyrrolo[2,3-d]pyrimidine] | 163 to 164 °C
CC(C)n1cc(-c2ccc(C=O)cc2)c2c(N)ncnc21 [Example 160, 4-(4-amino-7-isopropyl-7H-pyrrolo[2,3-d]pyrimidin-5-yl)benzaldehyde] | 198 to 200 °C
Nc1ncnc2c1c(-c1ccc(Oc3ccc(OCCO)cc3)cc1)cn2CCO [Example 169, 7-(2-Hydroxyethyl)-5-{4-[4-(2-hydroxyethoxy)phenoxy]phenyl}pyrrolo[2,3-d]-pyrimidin-4-ylamine] | 166 to 166.5 °C
CC(C)n1cc(-c2ccc(Oc3ccccc3)c(CO)c2)c2c(N)ncnc21 [Example 163, 5-[4-amino-7-isopropyl-7H-pyrrolo[2,3-d]pyrimidin-5-yl]-2-phenoxybenzylalcohol] | 92 to 94 °C
Nc1ncnc2c1c(-c1ccc(Oc3ccccc3)cc1)cn2C1CC2CC(O)CC2C1 (centres unmarked) [Example 174, 7-[4-amino-5-(4-phenoxyphenyl)-7H-pyrrolo[2,3-d]pyrimidin-7-yl]bicyclo[3.3.0]octan-3-ol] | 193 to 194 °C
Nc1ncnc2c1c(-c1ccc(Oc3ccccc3)cc1)cn2C1CCC(O)CC1 (centres unmarked) [Example 175, 4-[4-amino-5-(4-phenoxyphenyl)-7H-pyrrolo[2,3-d]pyrimidin-7-yl]cyclohexanol] | 199 to 200 °C
